The values that follow come from patent US12622953B2, “Vaccines targeting neoepitopes” (Evaxion Biotech A/S, priority 2019, dated 2026).

“Also recorded” adds a separate entry of the source.

In this assay the test system is neo-peptide specific CD8+ T cells. Nature of the assay: MHC I multimer staining of whole blood after i.p. immunization. The note with it: endpoint day 28, 2.0 μg C22 i.p. In kind it is in vivo, BALB/c mice. As to the method:
6-8 weeks old BALB/c JrJ femal mice were acquired from Janvier Labs. The mice were acclimated for one week before initiation of the experiment. The mice had ad libitum access to water and standard chow pellets. The experiment was conducted under license 2017-15-0201-01338 from the Danish Animal Experimentation Inspectorate in accordance with the Danish Animal Experimentation Act, which is stricter and therefore fully compliant with the European directive (2010/63/EU). The mice were ear tagged to allow for identification of individuals.
To avoid “cage effects” all treatment groups were represented in each cage. Mice in groups 1, 2, 3 and 4 (the cluster immunization groups) were intraperitoneally (i.p.) immunized at day 0, 1, 2, 3, 7, 14 and 21 with 0.4, 2.0, 10.0 and 50.0 μg of C22 admixed with CAF09b, respectively. Corresponding groups (5, 6, 7 and 8) were vaccinated according to a traditional prime-boost strategy on days 0, 14 and 21 with solutions identical to what group 1, 2, 3 and 4 received. Dosing volumes for the mice were 200 μl for all vaccines.
The C22 peptide was synthesised by GenScript and aliquoted into 0.8 mg portions as a lyophilized product. The peptide was solubilized in DMSO to a concentration of 10 mg/ml by adding 80 μl DMSO to each aliquot. The peptide stock was then diluted 10 times in sterile water (80 μl peptide stock+720 μl sterile water). […]

Regarding “QIETQQRKFKASRASILSEMKMLKEKR (listed as Mus musculus) [Peptide C22]”, the “MHC:C22 positive CD8+ T cells in blood” value (cluster primed) was “low-frequency MHC:C22 positive CD8+ T cells were detected; also recorded: small increase”. In addition, the “neo-peptide specific CD8+ cells in blood” value (standard prime-boost schedule) is on record as “hardly any”.
